Data: ChEMBL document CHEMBL4145641, “Identification of Thiourea-Based Inhibitors of the B-Cell Lymphoma 6 BTB Domain via NMR-Based Fragment Screening and Computer-Aided Drug Design” (J Med Chem, 2018)

Key:
[1] = Solubility in aqueous solution containing 1% DMSO; type: physicochemical
[2] = tested on: OCI-Ly1; experiment: Growth inhibition of human OCI-LY1 cells incubated for 48 hrs by cell-titer-blue dye based assay; type: functional; conditions: OCI-Ly1, 48 h
[3] = tested on: OCI-Ly7; experiment: Growth inhibition of human OCI-LY7 cells incubated for 48 hrs by cell-titer-blue dye based assay; type: functional; conditions: OCI-Ly7, 48 h
[4] = tested on: SUD4; experiment: Growth inhibition of human SUDHL4 cells incubated for 48 hrs by cell-titer-blue dye based assay; type: functional; conditions: SU-DHL-4, 48 h
[5] = tested on: SU-DHL-6; experiment: Growth inhibition of human SUDHL6 cells incubated for 48 hrs by cell-titer-blue dye based assay; type: functional; conditions: SU-DHL-6, 48 h
[6] = tested on: KARPAS-422; experiment: Growth inhibition of human KARPAS422 cells incubated for 48 hrs by cell-titer-blue dye based assay; type: functional; conditions: KARPAS-422, 48 h
[7] = tested on: Toledo; experiment: Growth inhibition of human Toledo cells incubated for 48 hrs by cell-titer-blue dye based assay; type: functional
[8] = Growth inhibition of human OCI-Ly1-B50 cells incubated for 48 hrs by cell-titer-blue dye based assay; type: functional
[9] = target: B-cell lymphoma 6 protein (Homo sapiens, UniProt P41182); experiment: Binding affinity to fluorescently labeled recombinant BCL6 BTB domain (unknown origin) expressed in Escherichia coli BL21 (DE3) incubated for 10 mins by microscale thermophoresis method

In the case of `CCOC(=O)CNC(=O)Cn1cc(CN2CCN(C)CC2)c2ccc(NC(=S)NCCc3c[nH]c4ccccc34)cc21`, the solubility [1] is reported as over 1000 µM.

For `CN1CCN(Cc2cn(CC(=O)N3CCOCC3)c3cc(NC(=S)NCCc4c[nH]c5ccccc45)ccc23)CC1`, the solubility [1] was over 1000 µM, the GI50 [2] was over 500 µM and the GI50 [3] was 193 µM. It also gave a GI50 [4] of over 500 µM, a GI50 [5] of over 500 µM and a GI50 [6] of over 500 µM. The GI50 [7] was over 500 µM and the GI50 [8] was over 500 µM.

`COC(=O)Cn1cc(CN2CCN(C)CC2)c2ccc(NC(=S)NCCc3c[nH]c4ccccc34)cc21` showed a GI50 [2] of over 500 µM, a GI50 [3] of over 500 µM and a GI50 [4] of over 500 µM. For the same compound, the GI50 [5] was 100 µM, the GI50 [6] was over 500 µM and the GI50 [7] was over 500 µM. The GI50 [8] was over 500 µM.

Compound `CN1CCN(Cc2cn(CC(=O)N3CCCCC3)c3cc(NC(=S)NCCc4c[nH]c5ccccc45)ccc23)CC1` has a solubility [1] of over 1000 µM, a GI50 [2] of 100 µM and a GI50 [3] of 33 µM. For the same compound, the GI50 [4] was 103 µM, the GI50 [5] was 60 µM and the GI50 [6] was over 500 µM. For the same compound, the GI50 [7] was over 500 µM and the GI50 [8] was over 500 µM.

`CC[C@H](C)[C@H](NC(=O)[C@H](CCC(=O)O)NC(=O)[C@H](Cc1cnc[nH]1)NC(=O)[C@H](NC(=O)[C@H](CO)NC(=O)[C@H](CCCNC(=N)N)NC(=O)CNC(=O)[C@H](C)NC(=O)[C@H](CCC(=O)O)NC(=O)[C@H](CCCCN)NC(=O)[C@@H](NC(=O)[C@@H](NC(=O)[C@H](C)NC(=O)[C@@H](NC(=O)[C@@H](N)CC(C)C)C(C)C)[C@@H](C)O)C(C)C)[C@@H](C)CC)C(=O)N1CCC[C@@H]1C(=O)N[C@@H](CCCNC(=N)N)C(=O)O` showed a Kd [9] of 30 µM.

`CN1CCN(Cc2cn(CC(=O)NCC(=O)O)c3cc(NC(=S)NCCc4c[nH]c5ccccc45)ccc23)CC1` gave a solubility [1] of over 1000 µM, a GI50 [2] of over 500 µM and a GI50 [3] of over 500 µM. It also gave a GI50 [4] of over 500 µM, a GI50 [5] of over 500 µM and a GI50 [6] of over 500 µM. The GI50 [7] was over 500 µM and the GI50 [8] was over 500 µM.

With `CC(C)NC(=O)Cn1cc(CN2CCN(C)CC2)c2ccc(NC(=S)NCCc3c[nH]c4ccccc34)cc21` the solubility [1] was over 1000 µM, the GI50 [2] was over 500 µM and the GI50 [3] was over 500 µM. For the same compound, the GI50 [4] was over 500 µM, the GI50 [5] was over 500 µM and the GI50 [6] was over 500 µM. For the same compound, the GI50 [7] was over 500 µM and the GI50 [8] was over 500 µM.

In the case of `O=C(O)CNC(=O)Cn1ccc2ccc(NC(=S)NCCc3c[nH]c4ccccc34)cc21`, the GI50 [2] is reported as over 500 µM, the GI50 [3] is reported as over 500 µM and the GI50 [4] is reported as over 500 µM. For the same compound, the GI50 [5] was over 500 µM, the GI50 [6] was over 500 µM and the GI50 [7] was over 500 µM. The GI50 [8] was over 500 µM.

Compound `CN1CCN(Cc2cn(CC(=O)N3CCN(C)CC3)c3cc(NC(=S)NCCc4c[nH]c5ccccc45)ccc23)CC1` has a solubility [1] of over 1000 µM.

Work on `CCN(CC)C(=O)Cn1cc(CN2CCN(C)CC2)c2ccc(NC(=S)NCCc3c[nH]c4ccccc34)cc21` yielded a solubility [1] of over 1000 µM.

Work on `CC1CN(C(=O)Cn2cc(CN3CCN(C)CC3)c3ccc(NC(=S)NCCc4c[nH]c5ccccc45)cc32)CCO1` (racemic) yielded a solubility [1] of over 1000 µM, a GI50 [2] of over 500 µM and a GI50 [3] of 116 µM. For the same compound, the GI50 [4] was over 500 µM, the GI50 [5] was over 500 µM and the GI50 [6] was over 500 µM. For the same compound, the GI50 [7] was over 500 µM and the GI50 [8] was over 500 µM.
